Counter-ions that a name gives are not always drawn.
These compounds were tested against T1, Full length human recombinant PIKFYVE (Homo sapiens, UniProt Q9Y2I7) (assay: Inhibition of PIKfyve (microfluidic electrophoresis kinase assay, PI3P/PS substrate)). Conditions: 12 concentrations.
T1 construct: Full length human recombinant PIKFYVE; purchased Carna Biosciences (Kobe, Japan); host or cells: baculovirus expression system
Type: biochemical
Description: Full length human recombinant PIKFYVE expressed in baculovirus expression system as N-terminal GST-fusion protein (265 kDa) was obtained from Carna Biosciences (Kobe, Japan). The kinase substrate was prepared by mixing and sonicating fluorescently-labeled phosphatidylinositol 3-phosphate (PI3P) with phospho-L-serine (PS) at a 1:10 ratio in 50 mM HEPES buffer pH 7.5.
The kinase reactions were assembled in 384-well plates (Greiner) in a total volume of […] as follows. Kinase protein was pre-diluted in an assay buffer comprising 25 mM HEPES, pH 7.5, 1 mM DTT, 2.5 mM MgCl2, and 2.5 mM MnCl2, and 0.005% Triton X-100, and dispensed into a 384-well plate (10 μL per well). Test compounds were serially pre-diluted in DMSO and added to the protein samples by acoustic dispensing (Labcyte Echo). The concentration of DMSO was equalized to 1% in all samples. All test compounds were tested at 12 concentrations. Apilimod was used as a reference compound and was tested in identical manner in each assay plate. Control samples (0%-inhibition, in the absence of inhibitor, DMSO only) and 100%-inhibition (in the absence of enzyme) were assembled in replicates of four and were used to calculate %-inhibition in the presence of compounds. The reactions were initiated by addition of 10 μL of 2×PI3P/PS substrate supplemented with ATP. The final concentration of enzyme was 2 nM, the final concentration of ATP was […], and the final concentration of PI3P/PS substrate was 1 μM (PI3P). The kinase reactions were allowed to proceed for 3 h at room temperature. Following incubation, the reactions were quenched by addition of […] of termination buffer (100 mM HEPES, pH 7.5, 0.01% Triton X-100, 20 mM EDTA). Terminated plates were analyzed on a microfluidic electrophoresis instrument (Caliper LabChip® 3000, Caliper Life Sciences/Perkin Elmer). The change in the relative fluorescence intensity of the PI(3)P substrate and PI(3,5)P product peaks was measured. The activity in each test sample was determined as the product to sum ratio (PSR): P/(S+P), where P is the peak height of the product, and S is the peak height of the substrate. Percent inhibition (Pinh) was determined using the following equation:
Pinh=(PSR0% inh−PSRcompound)/(PSR0% inh−PSR100% inh)*100
in which PSRcompound is the product/sum ratio in the presence of compound, PSR0% inh is the product/sum ratio in the absence of compound, and the PSR100% inh is the product/sum ratio in the absence of the enzyme.

T1 sequence (Q9Y2I7 whole entry): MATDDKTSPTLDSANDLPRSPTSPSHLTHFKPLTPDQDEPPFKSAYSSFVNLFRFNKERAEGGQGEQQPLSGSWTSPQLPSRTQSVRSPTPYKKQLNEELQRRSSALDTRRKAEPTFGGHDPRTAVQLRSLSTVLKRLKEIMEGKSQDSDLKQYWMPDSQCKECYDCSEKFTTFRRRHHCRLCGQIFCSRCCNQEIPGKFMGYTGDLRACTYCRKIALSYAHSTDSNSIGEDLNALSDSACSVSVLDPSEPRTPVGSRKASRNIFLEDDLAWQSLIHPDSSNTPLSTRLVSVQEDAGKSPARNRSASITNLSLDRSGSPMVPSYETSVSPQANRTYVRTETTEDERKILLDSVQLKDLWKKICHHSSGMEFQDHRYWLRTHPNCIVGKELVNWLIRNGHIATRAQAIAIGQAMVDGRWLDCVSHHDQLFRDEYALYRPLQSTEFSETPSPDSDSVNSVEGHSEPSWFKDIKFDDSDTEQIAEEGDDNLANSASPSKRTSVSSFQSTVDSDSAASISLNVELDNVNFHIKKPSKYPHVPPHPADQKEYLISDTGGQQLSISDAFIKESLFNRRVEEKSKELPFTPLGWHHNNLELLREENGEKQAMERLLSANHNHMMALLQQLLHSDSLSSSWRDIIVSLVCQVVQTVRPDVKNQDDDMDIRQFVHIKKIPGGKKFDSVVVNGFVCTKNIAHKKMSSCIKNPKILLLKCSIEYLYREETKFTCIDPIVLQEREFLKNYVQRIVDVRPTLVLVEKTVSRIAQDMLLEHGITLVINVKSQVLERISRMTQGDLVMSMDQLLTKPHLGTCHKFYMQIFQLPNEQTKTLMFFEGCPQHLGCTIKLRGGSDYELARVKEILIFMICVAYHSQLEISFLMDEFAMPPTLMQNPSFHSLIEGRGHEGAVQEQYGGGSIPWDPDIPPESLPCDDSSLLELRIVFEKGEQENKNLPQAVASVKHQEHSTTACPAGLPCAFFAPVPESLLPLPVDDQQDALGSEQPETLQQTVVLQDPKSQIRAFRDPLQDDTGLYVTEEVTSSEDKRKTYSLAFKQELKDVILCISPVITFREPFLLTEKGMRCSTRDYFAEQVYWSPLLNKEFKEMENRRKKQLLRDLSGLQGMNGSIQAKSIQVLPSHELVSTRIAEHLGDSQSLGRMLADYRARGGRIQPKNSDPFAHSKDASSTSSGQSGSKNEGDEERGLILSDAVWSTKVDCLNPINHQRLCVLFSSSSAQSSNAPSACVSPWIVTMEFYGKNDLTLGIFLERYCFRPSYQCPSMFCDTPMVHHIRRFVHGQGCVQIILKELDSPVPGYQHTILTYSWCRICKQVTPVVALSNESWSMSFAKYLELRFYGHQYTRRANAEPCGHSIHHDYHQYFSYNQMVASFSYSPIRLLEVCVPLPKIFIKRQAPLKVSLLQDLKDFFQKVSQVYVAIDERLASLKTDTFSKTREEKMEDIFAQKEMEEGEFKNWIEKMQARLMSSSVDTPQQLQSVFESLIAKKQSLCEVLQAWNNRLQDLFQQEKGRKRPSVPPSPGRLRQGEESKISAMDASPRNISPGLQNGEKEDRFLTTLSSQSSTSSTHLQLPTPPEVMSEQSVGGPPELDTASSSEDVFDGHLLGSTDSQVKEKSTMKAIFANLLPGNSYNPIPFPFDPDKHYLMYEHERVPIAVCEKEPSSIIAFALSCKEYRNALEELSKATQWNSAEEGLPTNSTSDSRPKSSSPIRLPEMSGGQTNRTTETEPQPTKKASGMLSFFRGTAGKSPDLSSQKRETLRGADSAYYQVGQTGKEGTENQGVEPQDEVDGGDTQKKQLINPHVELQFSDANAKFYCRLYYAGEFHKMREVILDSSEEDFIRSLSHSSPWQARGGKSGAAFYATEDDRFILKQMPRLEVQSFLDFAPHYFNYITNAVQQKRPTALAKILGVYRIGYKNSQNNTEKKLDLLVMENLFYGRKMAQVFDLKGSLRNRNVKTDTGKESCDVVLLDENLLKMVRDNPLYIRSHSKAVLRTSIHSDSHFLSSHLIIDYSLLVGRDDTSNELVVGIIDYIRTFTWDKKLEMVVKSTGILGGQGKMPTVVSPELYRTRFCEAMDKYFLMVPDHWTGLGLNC

| Structure (SMILES) | IC50 |
| --- | --- |
| Cc1ccc(-c2cc(Nc3nc(N4CCOCC4)c4oc(-c5ccncc5)cc4n3)[nH]n2)cc1 [Compound 4, 4-morpholino-N-[5-(p-tolyl)-1H-pyrazol-3-yl]-6-(4-pyridyl)furo[3,2-d]pyrimidin-2-amine, hydrogen chloride] | 30.9 nM |
| Cc1cc(Nc2nc(N3CCOCC3)c3oc(-c4ccncc4)cc3n2)[nH]n1 [Compound 5, N-(5-methyl-1H-pyrazol-3-yl)-4-morpholino-6-(4-pyridyl)furo[3,2-d]pyrimidin-2-amine, hydrogen chloride] | 279 nM |
| Fc1cccc(-c2cc(Nc3nc(N4CCOCC4)c4occc4n3)[nH]n2)c1 [Compound 7, N-[5-(3-fluorophenyl)-1H-pyrazol-3-yl]-4-morpholino-furo[3,2-d]pyrimidin-2-amine, hydrogen chloride] | 451 nM |
| c1cc(-c2cc(Nc3nc(N4CCOCC4)c4occc4n3)[nH]n2)ccn1 [Compound 10, 4-morpholino-N-(3-(pyridin-4-yl)-1H-pyrazol-5-yl)furo[3,2-d]pyrimidin-2-amine hydrochloride] | 6220 nM |
| Clc1cc2nc(Nc3cc(-c4ccccc4)n[nH]3)nc(N3CCOCC3)c2o1 [Compound 11, 6-chloro-4-morpholino-N-(5-phenyl-1H-pyrazol-3-yl)furo[3,2-d]pyrimidin-2-amine hydrochloride] | 54.4 nM |
| c1ccc(-c2cc(Nc3nc(N4CCOCC4)c4oc(CN5CCOCC5)cc4n3)[nH]n2)cc1 [Compound 12, 4-morpholino-6-(morpholinomethyl)-N-(3-phenyl-1H-pyrazol-5-yl)furo[3,2-d]pyrimidin-2-amine hydrochloride] | 116 nM |
| CN(C)Cc1cc2nc(Nc3cc(-c4ccccc4)n[nH]3)nc(N3CCOCC3)c2o1 [Compound 14] | 847 nM |
| c1ccc(-c2cc(Nc3nc(N4CCOCC4)c4oc(CN5CCCC5)cc4n3)[nH]n2)cc1 [Compound 16] | 1000 nM |
| COCCN(C)Cc1cc2nc(Nc3cc(-c4ccccc4)n[nH]3)nc(N3CCOCC3)c2o1 [Compound 17] | 303 nM |

Now from value to compound:

| IC50 | Structure (SMILES) |
| --- | --- |
| 64.8 nM | Cc1ccccc1-c1cc(Nc2nc(N3CCOCC3)c3oc(-c4ccncc4)cc3n2)[nH]n1 [Compound 2, 4-morpholino-N-[5-(o-tolyl)-1H-pyrazol-3-yl]-6-(4-pyridyl)furo[3,2-d]pyrimidin-2-amine, hydrogen chloride] |
| 44.6 nM | c1cc(-c2cc(Nc3nc(N4CCOCC4)c4oc(-c5ccncc5)cc4n3)[nH]n2)ccn1 [Compound 6, 4-morpholino-6-(4-pyridyl)-N-[5-(4-pyridyl)-1H-pyrazol-3-yl]furo[3,2-d]pyrimidin-2-amine, hydrogen chloride] |
| 59.5 nM | Cc1cccc(-c2cc(Nc3nc(N4CCOCC4)c4occc4n3)[nH]n2)c1 [Compound 8, 4-morpholino-N-[5-(m-tolyl)-1H-pyrazol-3-yl]furo[3,2-d]pyrimidin-2-amine, hydrogen chloride] |
| > 10000 nM | Cc1cc(Nc2nc(N3CCOCC3)c3occc3n2)[nH]n1 [Compound 9, N-(5-methyl-1H-pyrazol-3-yl)-4-morpholino-furo[3,2-d]pyrimidin-2-amine, hydrogen chloride] |
| 545 nM | c1ccc(-c2cc(Nc3nc(N4CCOCC4)c4oc(CN5CCCCC5)cc4n3)[nH]n2)cc1 [Compound 13] |
| 71 nM | CN1CCN(Cc2cc3nc(Nc4cc(-c5ccccc5)n[nH]4)nc(N4CCOCC4)c3o2)CC1 [Compound 15] |
| 144 nM | c1cncc(-c2cc(Nc3nc(N4CCOCC4)c4oc(-c5ccncc5)cc4n3)[nH]n2)c1 [Compound 18, 4-morpholino-6-(4-pyridyl)-N-[5-(3-pyridyl)-1H-pyrazol-3-yl]furo[3,2-d]pyrimidin-2-amine, hydrogen chloride] |
| 64 nM | c1ccc(-c2cc(Nc3nc(N4CCOCC4)c4oc(-c5ccncc5)cc4n3)[nH]n2)nc1 [Compound 19, 4-morpholino-6-(4-pyridyl)-N-[5-(2-pyridyl)-1H-pyrazol-3-yl]furo[3,2-d]pyrimidin-2-amine, hydrogen chloride] |

From US20230146395A1, “Substituted Pyrimidines and Uses Thereof” (Verge Analytics, Inc., priority 2020, published 2023)
